Earlier results in patent publication US12497429B2, “Saponin-based vaccine adjuvants” (priority 2018, dated 2025).

Conditions: compared to vaccine alone

Substance: monophosphoryl lipid A [MPL]
- boost of serum Ab titers: 10-20 fold
